Our source for the EC50 values is US9474790B2, “Stable, protracted GLP-1/glucagon receptor co-agonists for medical use” (Novo Nordisk A/S, priority 2013, dated 2016).

Molecules are shown by their SMILES. Numbered stars: 1 amine (or outer) side, 2 acyl side, 3 side chain; on linkers, the order of the positions; unused ones are H or OH. Square brackets hold non-standard residues; d marks the D form. Side chains are listed from the residue outwards. Peptide text beside a SMILES is read from it. * marks the point of attachment. C18 diacid = O=C(O)CCCCCCCCCCCCCCCCC(=O)*; γGlu = O=C(O)[C@H](CCC(=O)[*:2])N[*:1]; AEEA = NCCOCCOCC(=O)O; Aib = CC(C)(N)C(=O)O

The target of this assay is T1, human GLP-1 receptor (Homo sapiens, UniProt P43220).
T1 construct: expressed in transfected cells; host or cells: BHK cells (parent BHKTS13), clone FCW467-12A/KZ10-1, with CRE luciferase
T1 sequence (P43220 24-463): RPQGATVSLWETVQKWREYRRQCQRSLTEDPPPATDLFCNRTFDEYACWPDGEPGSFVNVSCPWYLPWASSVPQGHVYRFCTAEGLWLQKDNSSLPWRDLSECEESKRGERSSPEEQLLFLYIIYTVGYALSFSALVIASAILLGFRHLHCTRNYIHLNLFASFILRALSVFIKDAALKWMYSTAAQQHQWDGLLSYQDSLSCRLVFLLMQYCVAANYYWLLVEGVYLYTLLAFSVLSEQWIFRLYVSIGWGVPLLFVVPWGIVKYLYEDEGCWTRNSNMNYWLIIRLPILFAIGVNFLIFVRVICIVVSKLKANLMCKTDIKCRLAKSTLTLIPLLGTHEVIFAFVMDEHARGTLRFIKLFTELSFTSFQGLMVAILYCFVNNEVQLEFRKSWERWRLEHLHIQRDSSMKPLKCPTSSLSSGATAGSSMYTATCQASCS
Kind of assay: GLP-1 receptor potency, CRE luciferase reporter gene assay in BHK cells. The following applies: BHK cells expressing human GLP-1 receptor, read-out: EC50 GLP-1R. The class given is cell-based. How it is done:
The purpose of this example was to test the potency, of the glucagon derivatives of the invention, in vitro. The in vitro potency is the measure of human GLP-1 receptor or glucagon receptor activation, respectively, in a whole cell assay.
In vitro potency was determined by measuring the response of human GLP-1 or glucagon receptor, respectively, in a reporter gene assay. The assay was performed in a stably transfected BHK cell line that expresses either the human GLP-1 receptor or the human glucagon receptor and contains the DNA for the cAMP response element (CRE) coupled to a promoter and the gene for firefly luciferase (CRE luciferase). […] When assay incubation was completed, the luciferase substrate (luciferin) was added and the enzyme converted luciferin to oxyluciferin and produces bioluminescence. The luminescence was measured as the readout for the assay.
The cells used in this assay (clone FCW467-12A/KZ10-1) were BHK cells with BHKTS13 as a parent cell line. The cells were derived from a clone (FCW467-12A) that expresses the human GLP-1 receptor and were established by further transfection with
CRE luciferase to obtain the current clone.
The cells were cultured at 5% CO2 in DMEM medium with 10% FBS, 1×GlutaMAX, 1 mg/ml G418, 240 nM MTX (methotrexate) and 1% pen/strep (penicillin/streptomycin). They were aliquoted and stored in liquid nitrogen. Before each assay, an aliquot was taken up and washed three times in PBS before being suspended at the desired concentration in assay medium. For 96-well plates the suspension was made to give a final concentration of 5×10EE3 cells/well.
The following chemicals were used in the assay: Pluronic F-68 (10%) (Gibco 2404), ovalbumin (Sigma A5503), DMEM w/o phenol red (Gibco 11880-028), 1 M Hepes (Gibco 15630), Glutamax 100× (Gibco 35050) and steadylite plus (PerkinElmer 6016757).
Assay Medium consisted of DMEM w/o phenol red, 10 mM Hepes, lx GlutaMAX, 2% Ovalbumin and 0.2% Pluronic F-68.
Cell stocks were thawed in a 37° C. water bath. Cells were washed three times in PBS. The cells were counted and adjusted to 5×10EE3 cells/50 μl (1×10EE5 cells/ml) in Assay Medium. A 50 μl aliquot of cells was transferred to each well in the assay plate.
Stocks of the test compounds and reference compounds were diluted to a concentration of […] in Assay Medium. Compounds were diluted 10-fold to give the following concentrations: 2×10EE-6 M, 2×10EE-7 M, 2×10EE-8 M; 2×10EE-9 M, 2×10EE-10 M, 2×10EE-11 M, 2×10EE-12 M and 2×10EE-13 M. For each compound a blank assay medium control was also included.
A 50 μl aliquot of compound or blank was transferred from the dilution plate to the assay plate. Compounds were tested at the following final concentrations: 1×10EE-6 M, 1×10EE-7 M, 1×10EE-8 M; 1×10EE-9 M, 1×10EE-10 M, 1×10EE-11 M and 1×10EE-12 M and 1×10EE-13 M.
The assay plate was incubated for 3 h in a 5% CO2 incubator at 37° C. The assay plate was removed from the incubator and allowed to stand at room temperature for 15 min. A 100 μl aliquot of steadylite plus reagent was added to each well of the assay plate (reagent is light sensitive). Each assay plate was covered with aluminum foil to protect it from light and shaken for 30 min at room temperature. Each assay plate was read in a Perkin Elmer TopCount NXT instrument.
The data from the TopCount instrument was transferred to GraphPad Prism software. The software performed a non-linear regression (log(agonist) vs response-Variable slope (four parameter)). EC50 values were calculated by the software and reported in pM.
In the case of `CC(C)C[C@H](NC(=O)[C@H](Cc1ccc(O)cc1)NC(=O)[C@H](CCCCN)NC(=O)[C@H](CO)NC(=O)[C@H](CC(C)C)NC(=O)[C@H](CC(=O)O)NC(=O)[C@H](CO)NC(=O)[C@@H](NC(=O)[C@H](Cc1ccccc1)NC(=O)[C@@H](NC(=O)CNC(=O)[C@H](CCC(N)=O)NC(=O)C(C)(C)NC(=O)[C@@H](N)Cc1c[nH]cn1)[C@@H](C)O)[C@@H](C)O)C(=O)N[C@@H](CC(=O)O)C(=O)N[C@@H](CO)C(=O)N[C@@H](CCCNC(=N)N)C(=O)N[C@@H](CCCNC(=N)N)C(=O)N[C@@H](C)C(=O)N[C@@H](CCCNC(=N)N)C(=O)N[C@@H](CCCCNC(=O)CC[C@H](NC(=O)CC[C@H](NC(=O)COCCOCCNC(=O)COCCOCCNC(=O)CC[C@H](NC(=O)CCCCCCCCCCCCCCCCC(=O)O)C(=O)O)C(=O)O)C(=O)O)C(=O)N[C@@H](Cc1ccccc1)C(=O)N[C@H](C(=O)N[C@@H](CCC(N)=O)C(=O)N[C@@H](Cc1c[nH]c2ccccc12)C(=O)N[C@@H](CC(C)C)C(=O)N[C@@H](CC(C)C)C(=O)N[C@@H](CO)C(=O)N[C@H](C(N)=O)[C@@H](C)O)C(C)C` [Example 2] (H-H[Aib]QGTFTSDLSKYLDSRRARK([γGlu-γGlu-AEEA-AEEA-γGlu-C18 diacid])FVQWLLST-NH2; N-terminus assumed), the EC50 was found to be 0.044 nM. As for `CC(C)C[C@H](NC(=O)[C@H](Cc1ccc(O)cc1)NC(=O)[C@H](CCCCN)NC(=O)[C@H](CO)NC(=O)[C@H](CC(C)C)NC(=O)[C@H](CC(=O)O)NC(=O)[C@H](CO)NC(=O)[C@@H](NC(=O)[C@H](Cc1ccccc1)NC(=O)[C@@H](NC(=O)CNC(=O)[C@H](CCC(N)=O)NC(=O)C(C)(C)NC(=O)[C@@H](N)Cc1c[nH]cn1)[C@@H](C)O)[C@@H](C)O)C(=O)N[C@@H](CC(=O)O)C(=O)N[C@@H](CO)C(=O)N[C@@H](CCCNC(=N)N)C(=O)N[C@@H](CCCNC(=N)N)C(=O)N[C@@H](C)C(=O)N[C@@H](CCCNC(=N)N)C(=O)N[C@@H](CC(=O)O)C(=O)N[C@@H](Cc1ccccc1)C(=O)N[C@H](C(=O)N[C@@H](CCCCNC(=O)CC[C@H](NC(=O)CC[C@H](NC(=O)COCCOCCNC(=O)COCCOCCNC(=O)CC[C@H](NC(=O)CCCCCCCCCCCCCCCCC(=O)O)C(=O)O)C(=O)O)C(=O)O)C(=O)N[C@@H](Cc1c[nH]c2ccccc12)C(=O)N[C@@H](CC(C)C)C(=O)N[C@@H](CC(C)C)C(=O)N[C@@H](CO)C(=O)N[C@H](C(N)=O)[C@@H](C)O)C(C)C` [Example 3, N^ε24-[(4S)-4-carboxy-4-[[(4S)-4-carboxy-4-[[2-[2-[2-[[2-[2-[2-[[(4S)-4-carboxy-4-(17-carboxyheptadecanoylamino)butanoyl]amino]ethoxy]ethoxy]acetyl]amino]ethoxy]ethoxy]acetyl]amino]butanoyl]amino]butanoyl]-[Aib2,Leu10,Arg20,Lys24,Leu27,Ser28]-Glucagon amide] (H-H[Aib]QGTFTSDLSKYLDSRRARDFVK([γGlu-γGlu-AEEA-AEEA-γGlu-C18 diacid])WLLST-NH2; N-terminus assumed), the EC50 amounted to 0.006 nM. With `CC(C)C[C@H](NC(=O)[C@H](CC(C)C)NC(=O)[C@H](Cc1c[nH]c2ccccc12)NC(=O)[C@H](CCC(N)=O)NC(=O)[C@@H](NC(=O)[C@H](Cc1ccccc1)NC(=O)[C@H](CC(=O)O)NC(=O)[C@H](CCCNC(=N)N)NC(=O)[C@H](C)NC(=O)[C@H](CCCNC(=N)N)NC(=O)[C@H](CCCNC(=N)N)NC(=O)[C@H](CO)NC(=O)[C@H](CC(=O)O)NC(=O)[C@H](CC(C)C)NC(=O)[C@H](Cc1ccc(O)cc1)NC(=O)[C@H](CCCCN)NC(=O)[C@H](CO)NC(=O)[C@H](CC(C)C)NC(=O)[C@H](CC(=O)O)NC(=O)[C@H](CO)NC(=O)[C@@H](NC(=O)[C@H](Cc1ccccc1)NC(=O)[C@@H](NC(=O)CNC(=O)[C@H](CCC(N)=O)NC(=O)C(C)(C)NC(=O)[C@@H](N)Cc1c[nH]cn1)[C@@H](C)O)[C@@H](C)O)C(C)C)C(=O)N[C@@H](CO)C(=O)N[C@@H](CCCCNC(=O)CC[C@H](NC(=O)CC[C@H](NC(=O)COCCOCCNC(=O)COCCOCCNC(=O)CC[C@H](NC(=O)CCCCCCCCCCCCCCCCC(=O)O)C(=O)O)C(=O)O)C(=O)O)C(N)=O` [Example 5, N^ε29-[(4S)-4-carboxy-4-[[(4S)-4-carboxy-4-[[2-[2-[2-[[2-[2-[2-[[(4S)-4-carboxy-4-(17-carboxyheptadecanoylamino)butanoyl]amino]ethoxy]ethoxy]acetyl]amino]ethoxy]ethoxy]acetyl]amino]butanoyl]amino]butanoyl]-[Aib2,Leu10,Arg20,Leu27,Ser28,Lys29]-Glucagon amide] (H-H[Aib]QGTFTSDLSKYLDSRRARDFVQWLLSK([γGlu-γGlu-AEEA-AEEA-γGlu-C18 diacid])-NH2; N-terminus assumed), the EC50 worked out at 0.005 nM. `CC(C)C[C@H](NC(=O)[C@H](Cc1ccc(O)cc1)NC(=O)[C@H](CCCCN)NC(=O)[C@H](CO)NC(=O)[C@H](CC(C)C)NC(=O)[C@H](CC(=O)O)NC(=O)[C@H](CO)NC(=O)[C@@H](NC(=O)[C@H](Cc1ccccc1)NC(=O)[C@@H](NC(=O)CNC(=O)[C@H](CCC(N)=O)NC(=O)C(C)(C)NC(=O)[C@@H](N)Cc1c[nH]cn1)[C@@H](C)O)[C@@H](C)O)C(=O)N[C@@H](CC(=O)O)C(=O)N[C@@H](CO)C(=O)N[C@@H](CCCNC(=N)N)C(=O)N[C@@H](CCCNC(=N)N)C(=O)N[C@@H](C)C(=O)N[C@@H](CCCNC(=N)N)C(=O)N[C@@H](CC(=O)O)C(=O)N[C@@H](Cc1ccccc1)C(=O)N[C@H](C(=O)N[C@@H](CCC(N)=O)C(=O)N[C@@H](Cc1c[nH]c2ccccc12)C(=O)N[C@@H](CC(C)C)C(=O)N[C@@H](CC(C)C)C(=O)N[C@@H](CO)C(=O)N[C@H](C(=O)N[C@@H](CCCCNC(=O)CC[C@H](NC(=O)CC[C@H](NC(=O)COCCOCCNC(=O)COCCOCCNC(=O)CC[C@H](NC(=O)CCCCCCCCCCCCCCCCC(=O)O)C(=O)O)C(=O)O)C(=O)O)C(N)=O)[C@@H](C)O)C(C)C` [Example 6, N^α-([Aib2,Leu10,Arg20,Leu27,Ser28]-Glucagonyl)-N{Epsilon}[(4S)-4-carboxy-4-[[(4S)-4-carboxy-4-[[2-[2-[2-[[2-[2-[2-[[(4S)-4-carboxy-4-(17-carboxyheptadecanoylamino)butanoyl]amino]ethoxy]ethoxy]acetyl]amino]ethoxy]ethoxy]acetyl]amino]butanoyl]amino]butanoyl]Lys amide] (H-H[Aib]QGTFTSDLSKYLDSRRARDFVQWLLSTK([γGlu-γGlu-AEEA-AEEA-γGlu-C18 diacid])-NH2): the EC50 amounted to 0.02 nM.
